Here are results for one compound from US20170119742A1, “MEDICAMENT FOR PREVENTING AND/OR TREATING STRESS DISEASES” (ONO PHARMACEUTICAL CO., LTD., priority 2014, published 2017).

For this experiment, the system named is olfactory bulb isolated rats. Put plainly: Antidepressant effect: excessive emotional reactivity in olfactory bulb isolated rats. Particulars: rat, 0.3, 1 and 3 mg/kg oral once daily, before and after administration on day 7, p<0.01 Steel test. Format: in vivo. The source says: Male Crlj: WI rats (Charles River Laboratories Japan, Inc., at the time of surgery: 11 weeks old) were used to prepare an olfactory bulb isolated rat in accordance with Yamaguchi et al. method (Journal of the Pharmaceutical Society of Japan, Vol. 130, p. 175-183, 2007). The head of the anesthetized rat with pentobarbital sodium was fixed to brain stereotaxic apparatus (ASI Instruments Inc., NARISHIGE). After incising the scalp, holes to the left and right olfactory bulb region of the skull (7 mm forward and 1.8 mm laterally from bregma) were made with a dental drill. After aspirating and removing the left and right olfactory bulb by an aspirator coupled to an oral sonde which except for the tip, scalp was sutured. […] After 14 days of surgery, the excessive emotional reactivity was evaluated in accordance with the method of Gomita et al. (Journal of the Pharmaceutical Society of Japan, Vol. 82, p. 267-292, 1983). […]
A vehicle (physiological saline solution containing 0.5% Tween 80) or the compound of the present invention (0.3, 1 or 3 mg/kg) was orally administered to the olfactory bulb isolated rat repeatedly once daily for 8 days. […] On day 7, the excessive emotional reactivity was evaluated before and 1 hour after the administration.

Regarding `COc1cc(Cl)ccc1[C@H]1c2[nH]c3cccc(F)c3c2C2(CC2)CN1C(C)=O` [the compound of the present invention, (1S)-2-acetyl-1-(4-chloro-2-methoxyphenyl)-5-fluoro-1,2,3,9-tetrahydrospiro[β-carboline-4,1′-cyclopropane]], the “excessive emotional score compared with the vehicle control group” value is reported as “significantly lower”.
